Laboratory results as given in US20240076615A1, “MODELS AND METHODS FOR RAPID SCREENING OF THE EFFICACY OF IMMUNOREGULATING DRUGS” (priority 2022, published 2024).

Tested on: tumor cells and immune cells of a patient with ovarian cancer
Assay: IO-FIVE capsule tube test in mice, ovarian cancer patient (Example 3), CTG and FACS
Assay type: in vivo, human
Details: day 10; tumor sample after addition of autologous TIL cells
From the text: The following was collected for cell identification: a single cell suspension of tumor tissue samples of patients before purification, tumor cells after purification, enriched immune cells (containing CD3+T) eluted from the column, and a cell suspension in which tumor cells after purification and immune cells were mixed in a certain ratio (1.5:1 to 15:1), to yield a final cell count of 0.1 to 0.3 million cells. (Note that if the viability of immune cells eluted from the column was less than 20%, then downstream experiments and operations could not be performed, especially since activated immune cells were more likely to undergo activation-induced apoptosis). […]
According to the data analyzed in step of flow cytometry, the CD45− tumor cells and CD3+ T cells were mixed in a certain ratio (about 1.5:1-15:1). […]
3-21 days after administration (day 10 here), the mice were euthanized, and the PVDF tubes were removed. Cell viability was quantified by the CellTiter-Glo chemiluminescence method, and the relative ratio and basic phenotype of tumor cells and immune cells in PVDF tubes were detected by flow cytometry.
The results were analyzed by Flowjo software.

NC(=O)c1cccc2cn(-c3ccc([C@@H]4CCCNC4)cc3)nc12 [PARP inhibitor, Niraparib]
viability of total cells / overall tumor viability (CTG): neither PD1 antibody nor PARP inhibitor mono-therapy could inhibit
